From the supplement of paper PMC10307832

What was measured:
Assay in all cases: relative viability (nuclei count vs DMSO), 5 days (fraction); higher = more cells survive
Bortezomib + Luminespib = compound: CC(C)C[C@H](NC(=O)[C@H](Cc1ccccc1)NC(=O)c1cnccn1)B(O)O [Bortezomib] + CCNC(=O)c1noc(-c2cc(C(C)C)c(O)cc2O)c1-c1ccc(CN2CCOCC2)cc1 [Luminespib] (partner 0.01 µM)
Outline: (§1)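 Lung cancer cell lines were pin-tool dosed in 1536-well plates on the day after seeding, with either a lone drug or a fixed anchor-drug dose plus five library-drug doses (not always all listed) in √10 steps. Nuclei were counted on 4× images after 5 days. Relative viability is the ratio of treated-well to vehicle-well nuclei counts, with each value a median of duplicate plates.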

Bortezomib + Lapatinib = compound: CC(C)C[C@H](NC(=O)[C@H](Cc1ccccc1)NC(=O)c1cnccn1)B(O)O [Bortezomib] + CS(=O)(=O)CCNCc1ccc(-c2ccc3ncnc(Nc4ccc(OCc5cccc(F)c5)c(Cl)c4)c3c2)o1 [Lapatinib] (partner 2 µM)
Outline: as §1

[1] = compound: CC1=CC(=NN1)NC2=CC(=NC(=N2)/C=C/C3=CC=CC=C3)N4CCN(CC4)C + Cc1nc(Nc2ncc(C(=O)Nc3c(C)cccc3Cl)s2)cc(N2CCN(CCO)CC2)n1 [Dasatinib] (partner 0.075 µM)
Outline: as §1

[2] = compound: CC1=CC(=NN1)NC2=CC(=NC(=N2)/C=C/C3=CC=CC=C3)N4CCN(CC4)C + Nc1ncn([C@H]2C[C@H](O)[C@@H](CO)O2)c(=O)n1 [Decitabine] (partner 2 µM)
Outline: as §1

Row | Cell Line | relative viability (Bortezomib + Luminespib; first compound 0.0002 µM) | relative viability (Bortezomib + Luminespib; first compound 0.000632 µM) | relative viability (Bortezomib + Luminespib; first compound 0.002 µM) | relative viability (Bortezomib + Luminespib; first compound 0.006325 µM) | relative viability (Bortezomib + Luminespib; first compound 0.02 µM) | relative viability (Bortezomib + Lapatinib; first compound 0.0002 µM) | relative viability (Bortezomib + Lapatinib; first compound 0.000632 µM) | relative viability (Bortezomib + Lapatinib; first compound 0.002 µM) | relative viability (Bortezomib + Lapatinib; first compound 0.006325 µM) | relative viability (Bortezomib + Lapatinib; first compound 0.02 µM) | relative viability ([1]; first compound 0.08 µM) | relative viability ([1]; first compound 0.253 µM) | relative viability ([1]; first compound 0.8 µM) | relative viability ([1]; first compound 2.53 µM) | relative viability ([1]; first compound 8 µM) | relative viability ([2]; first compound 0.08 µM) | relative viability ([2]; first compound 0.253 µM) | relative viability ([2]; first compound 0.8 µM) | relative viability ([2]; first compound 2.53 µM) | relative viability ([2]; first compound 8 µM)
1 | NCI-H1395 | 0.864 | 0.761 | 0.445 | 0.334 | 0.263 | 0.998 | 0.79 | 0.449 | 0.499 | 0.28 | 0.424 | 0.409 | 0.4 | 0.344 | 0.28 | 0.7 | 0.771 | 0.708 | 0.514 | 0.291
2 | NCI-H1437 | 1.11 | 1.07 | 1.14 | 0.165 | 0.155 | 0.655 | 0.878 | 0.806 | 0.0943 | 0.0863 | 0.377 | 0.455 | 0.404 | 0.273 | 0.0967 | 0.523 | 0.583 | 0.555 | 0.499 | 0.255
3 | NCI-H1650 | 0.186 | 0.185 | 0.177 | 0.203 | 0.217 | 0.279 | 0.482 | 0.154 | 0.17 | 0.181 | 0.376 | 0.288 | 0.37 | 0.125 | 0.0926 | 0.333 | 0.454 | 0.389 | 0.297 | 0.113
4 | NCI-H1651 | 0.868 | 0.906 | 1.07 | 0.154 | 0.114 | 0.709 | 0.74 | 0.301 | 0.128 | 0.103 | 0.423 | 0.398 | 0.407 | 0.171 | 0.116 | 0.356 | 0.597 | 0.613 | 0.322 | 0.132
5 | NCI-H1666 | 0.951 | 1.02 | 0.98 | 0.319 | 0.322 | 0.611 | 0.883 | 0.841 | 0.194 | 0.187 | 0.787 | 0.874 | 0.778 | 0.659 | 0.294 | 0.574 | 0.682 | 0.749 | 0.719 | 0.584
6 | NCI-H1734 | 0.181 | 0.186 | 0.178 | 0.129 | 0.101 | 0.977 | 0.99 | 1.32 | 0.21 | 0.112 | 0.4 | 0.454 | 0.464 | 0.257 | 0.111 | 0.515 | 0.531 | 0.544 | 0.362 | 0.16
7 | NCI-H1755 | 0.494 | 0.418 | 0.417 | 0.21 | 0.181 | 0.991 | 0.853 | 1.04 | 0.48 | 0.155 | 0.465 | 0.466 | 0.425 | 0.253 | 0.14 | 0.707 | 0.65 | 0.733 | 0.663 | 0.428
8 | NCI-H1792 | 0.321 | 0.452 | 0.282 | 0.451 | 0.229 | 0.797 | 0.862 | 0.967 | 0.929 | 0.797 | 0.749 | 0.848 | 0.733 | 0.525 | 0.151 | 0.435 | 0.556 | 0.377 | 0.332 | 0.0377
9 | NCI-H1793 | 0.184 | 0.151 | 0.171 | 0.204 | 0.127 | 0.683 | 0.624 | 0.868 | 0.466 | 0.154 | 0.379 | 0.446 | 0.365 | 0.138 | 0.0977 | 0.488 | 0.554 | 0.43 | 0.127 | 0.123
10 | NCI-H1915 | 0.724 | 0.732 | 0.721 | 0.0571 | 0.0533 | 0.94 | 0.944 | 0.932 | 0.973 | 0.0577 | 0.347 | 0.27 | 0.28 | 0.16 | 0.0845 | 0.241 | 0.273 | 0.261 | 0.238 | 0.168
11 | NCI-H1944 | 0.715 | 0.697 | 0.763 | 0.548 | 0.167 | 0.883 | 0.774 | 0.929 | 0.809 | 0.328 | 0.23 | 0.209 | 0.197 | 0.147 | 0.107 | 0.4 | 0.485 | 0.478 | 0.351 | 0.252
12 | NCI-H1975 | 0.192 | 0.122 | 0.158 | 0.138 | 0.177 | 0.893 | 0.839 | 0.18 | 0.105 | 0.14 | 0.356 | 0.394 | 0.325 | 0.124 | 0.061 | 0.377 | 0.406 | 0.344 | 0.314 | 0.154
13 | NCI-H1993 | 0.799 | 0.807 | 0.991 | 0.428 | 0.4 | 0.69 | 0.77 | 0.935 | 0.51 | 0.497 | 0.613 | 0.527 | 0.565 | 0.44 | 0.37 | 0.526 | 0.598 | 0.616 | 0.47 | 0.445
14 | NCI-H2009 | 0.954 | 0.988 | 1.06 | 0.803 | 0.0826 | 0.583 | 0.812 | 0.968 | 0.0615 | 0.0663 | 0.325 | 0.307 | 0.329 | 0.15 | 0.0844 | 0.357 | 0.377 | 0.444 | 0.282 | 0.151
15 | NCI-H2023 | 0.638 | 0.694 | 0.789 | 0.118 | 0.0549 | 0.521 | 0.822 | 0.773 | 0.144 | 0.0649 | 0.575 | 0.588 | 0.555 | 0.0936 | 0.0621 | 0.22 | 0.221 | 0.231 | 0.0739 | 0.0699
16 | NCI-H2085 | 0.482 | 0.36 | 0.4 | 0.178 | 0.235 | 0.725 | 0.759 | 0.727 | 0.382 | 0.231 | 0.245 | 0.232 | 0.276 | 0.255 | 0.2 | 0.541 | 0.507 | 0.56 | 0.336 | 0.298
